PMC9841532, “Exploring the Effect of Halogenation in a Series of Potent and Selective A2B Adenosine Receptor Antagonists” (Journal of Medicinal Chemistry, 2022)
Where two headings read alike, the source gives them in different places.

How the values were obtained:
hA2AAR = target: T1, hA2AAR (Homo sapiens, UniProt P29274); test: Radioligand binding competition, [3H]ZM241385, membranes from HeLa-A2A cells; details: for % at 1 μM hA2A (percentage displacement of specific binding): [3H]ZM241385, human HeLa cells, n = 2
T1 construct: expressed in transfected cells; host or cells: HeLa (HeLa-A2A) cell membranes
T1 sequence (P29274 whole entry): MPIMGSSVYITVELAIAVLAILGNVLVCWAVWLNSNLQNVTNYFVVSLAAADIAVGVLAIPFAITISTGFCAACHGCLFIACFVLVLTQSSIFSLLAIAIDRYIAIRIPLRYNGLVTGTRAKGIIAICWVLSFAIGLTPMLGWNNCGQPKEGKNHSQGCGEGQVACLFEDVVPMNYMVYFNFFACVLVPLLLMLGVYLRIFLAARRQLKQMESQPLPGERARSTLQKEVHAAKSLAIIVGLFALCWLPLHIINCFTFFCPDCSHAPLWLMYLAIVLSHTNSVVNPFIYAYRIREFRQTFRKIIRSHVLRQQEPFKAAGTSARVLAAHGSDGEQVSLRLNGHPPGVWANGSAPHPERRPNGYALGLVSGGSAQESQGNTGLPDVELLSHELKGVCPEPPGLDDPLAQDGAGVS
Description: (§1) All ligands reported in Tables 1–5 were obtained and tested as racemic mixtures. The whole set was evaluated in silico with a combination of a Rdkit[37] PAINS filter and Instant JChem from Chemaxon (https://www.chemaxon.com), to rule out the possibility that these ligands can be promiscuous pan-assay interference compounds (PAINS) and to assess their bioavailability, respectively. […] The stereoisomers of selected compounds were obtained by chiral resolution and tested at the four human AR subtypes in their enantiopure forms (Table 6).
(§2) A brief description is given below. […] Non-specific binding was determined in the presence of 10 μM R-PIA. The reaction mixture was incubated at 25 °C for 60 min. […] The reaction mixture was incubated at 25 °C for 30 min. […] The reaction mixture was incubated at 25 °C for 30 min. […] Non-specific binding was determined in the presence of 100 μM R-PIA. […] After the incubation time, membranes were washed and filtered and radioactivity was detected in a MicroBeta TriLux reader (PerkinElmer).

hA1AR = target: T2, hA1AR (Homo sapiens, UniProt P30542); test: Radioligand binding competition, [3H]DPCPX, membranes from CHO-A1 cells; details: for % at 1 μM hA1 (percentage displacement of specific binding): [3H]DPCPX, human CHO cells, n = 2
T2 sequence (P30542 1-326): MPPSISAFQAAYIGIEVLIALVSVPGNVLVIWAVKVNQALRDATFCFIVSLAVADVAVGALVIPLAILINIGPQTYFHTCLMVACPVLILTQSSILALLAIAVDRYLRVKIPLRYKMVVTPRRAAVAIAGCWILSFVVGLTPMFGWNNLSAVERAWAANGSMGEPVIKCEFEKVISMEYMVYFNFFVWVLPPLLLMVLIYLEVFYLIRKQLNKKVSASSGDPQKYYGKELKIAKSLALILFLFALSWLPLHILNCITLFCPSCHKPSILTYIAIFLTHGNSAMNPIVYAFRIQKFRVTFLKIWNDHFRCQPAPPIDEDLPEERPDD
Description: as §1, §2

hA2BAR = target: T3, hA2BAR (Homo sapiens, UniProt P29275); test: Radioligand binding competition, [3H]DPCPX, membranes from HEK-293-A2B cells; set-up: Exp. dG: unit not given here; details: for % at 1 μM hA2B (percentage displacement of specific binding): [3H]DPCPX, human HEK-293 cells, n = 2; for Ki: read-out: Ki hA2B; for Exp. dG: experimental binding free energy, Supplementary Table S3, unit not given (errors in kcal/mol)
T3 construct: host or cells: HEK-293 (HEK-293-A2B) cell membranes
T3 sequence (P29275 1-332): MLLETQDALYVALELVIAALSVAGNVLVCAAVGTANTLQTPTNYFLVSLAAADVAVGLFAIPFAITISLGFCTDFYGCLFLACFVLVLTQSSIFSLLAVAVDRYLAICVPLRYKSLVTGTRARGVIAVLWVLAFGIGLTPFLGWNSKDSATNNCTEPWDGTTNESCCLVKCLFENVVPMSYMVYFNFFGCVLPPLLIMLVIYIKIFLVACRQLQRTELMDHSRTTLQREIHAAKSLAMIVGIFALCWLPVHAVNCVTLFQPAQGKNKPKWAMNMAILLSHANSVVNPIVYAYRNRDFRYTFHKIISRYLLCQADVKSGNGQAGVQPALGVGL
Description: as §1, §2

hA3AR = target: T4, hA3AR (Homo sapiens, UniProt P0DMS8); test: Radioligand binding competition, [3H]NECA, membranes from HeLa-A3 cells; details: 1 μM, [3H]NECA, human HeLa cells, n = 2
T4 construct: expressed in transfected cells; host or cells: HeLa (HeLa-A3) cell membranes
T4 sequence (P0DMS8 1-318): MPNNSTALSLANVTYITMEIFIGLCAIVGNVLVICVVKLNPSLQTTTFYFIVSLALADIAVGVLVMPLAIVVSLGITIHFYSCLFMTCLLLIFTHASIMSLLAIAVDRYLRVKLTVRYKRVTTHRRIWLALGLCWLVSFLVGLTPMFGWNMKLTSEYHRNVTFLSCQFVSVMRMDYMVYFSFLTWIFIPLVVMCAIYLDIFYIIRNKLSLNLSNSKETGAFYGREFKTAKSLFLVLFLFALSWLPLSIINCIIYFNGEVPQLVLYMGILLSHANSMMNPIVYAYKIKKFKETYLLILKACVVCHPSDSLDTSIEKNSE
Description: as §1, §2

[1] = displacement of specific [3H]DPCPX binding in human HEK-293 cells, n = 3

Row | Structure (SMILES) | % at 1 μM hA2A (percentage displacement of specific binding) (hA2AAR) [%] | % at 1 μM hA1 (percentage displacement of specific binding) (hA1AR) [%] | % at 1 μM hA2B (percentage displacement of specific binding) (hA2BAR) [%] | % at 1 μM hA3 (percentage displacement of specific binding) (hA3AR) [%] | Ki (hA2BAR; [1]) [nM] | Exp. dG (hA2BAR) | Ki (hA2AAR; displacement of specific [3H]ZM241385 binding in human HeLa cells, n = 3, read-out: Ki hA2A) [nM] | Ki (hA1AR; displacement of specific [3H]DPCPX binding in human CHO cells, n = 3, read-out: Ki hA1) [nM] | Ki (hA2BAR) [nM]
1 | CC1=C(C(=O)OC(C)C)[C@H](c2ccco2)n2c(nc3cc(Cl)ccc32)N1 [(R)-16j] | 37 | 7 | 51 | 5 |  |  |  |  | 
2 | CC1=C(C(=O)OC(C)C)C(c2ccoc2)n2c(nc3ccc(F)cc32)N1 (centres unmarked) [15d] | 11 | 25 |  | 6 | 136 ± 7 | -10.36 |  |  | 
3 | CCOC(=O)C1=C(C)Nc2nc3cc(F)ccc3n2C1c1ccoc1 (centres unmarked) [16c] | 21 | 29 |  | 2 | 13.7 ± 0.9 | -10.72 |  |  | 
4 | CCOC(=O)C1=C(C)Nc2nc3cc(Cl)c(Cl)cc3n2C1c1ccco1 (centres unmarked) [14i] | 5 | 2 | 9 | 1 |  |  |  |  | 
5 | CC1=C(C(=O)OC(C)C)C(c2ccoc2)n2c(nc3ccc(Br)cc32)N1 (centres unmarked) [15t] | 3 | 11 | 26 | 12 |  |  |  |  | 
6 | CCOC(=O)C1=C(C)Nc2nc3ccc(Br)cc3n2C1c1ccco1 (centres unmarked) [15q] | 21 | 22 | 48 | 5 |  |  |  |  | 
7 | CCOC(=O)C1=C(C)Nc2nc3cc(F)ccc3n2C1c1ccsc1 (centres unmarked) [16g] | 1 | 1 |  | 3 | 187 ± 2 | -9.172 |  |  | 
8 | CC1=C(C(=O)OC(C)C)C(c2cccs2)n2c(nc3ccc(F)cc32)N1 (centres unmarked) [15f] | 2 | 11 | 23 | 6 |  |  |  |  | 
9 | CC1=C(C(=O)OC(C)C)C(c2ccco2)n2c(nc3cc(Br)c(Br)cc32)N1 (centres unmarked) [14r] | 28 | 11 |  | 21 | 62.6 ± 1.9 |  |  |  | 
10 | CC1=C(C(=O)OC(C)C)C(c2ccsc2)n2c(nc3cc(F)c(F)cc32)N1 (centres unmarked) [14h] | 3 | 1 | 43 | 4 |  |  |  |  | 
11 | CC1=C(C(=O)OC(C)C)[C@@H](c2ccoc2)n2c(nc3cc(Cl)ccc32)N1 [(R)-16l] |  | 37 |  | 24 | 2.6 ± 0.3 |  | 96.3 ± 6 |  | 
12 | CCOC(=O)C1=C(C)Nc2nc3ccc(F)cc3n2C1c1ccco1 (centres unmarked) [15a] | 2 | 16 |  | 10 | 67.5 ± 3.1 | -9.777 |  |  | 
13 | CCOC(=O)C1=C(C)Nc2nc3cc(F)c(F)cc3n2C1c1cccs1 (centres unmarked) [14e] | 3 | 2 | 25 | 5 |  |  |  |  | 
14 | CCOC(=O)C1=C(C)Nc2nc3ccc(Cl)cc3n2C1c1cocn1 (centres unmarked) [17c] | 14 |  |  | 11 | 25.6 ± 1.2 | -10.35 |  | 227 | 
15 | CC1=C(C(=O)OC(C)C)C(c2ccsc2)n2c(nc3cc(F)ccc32)N1 (centres unmarked) [16h] | 1 | 2 |  | 5 | 75.5 ± 3.2 | -9.71 |  |  | 
16 | CCOC(=O)C1=C(C)Nc2nc3cc(Cl)ccc3n2C1c1ccoc1 (centres unmarked) [16k] | 43 | 31 |  | 4 | 7.21 ± 0.4 | -11.1 |  |  | < 10
17 | CC1=C(C(=O)OC(C)C)C(c2cccs2)n2c(nc3cc(F)ccc32)N1 (centres unmarked) [16f] | 1 | 2 |  | 7 | 668 ± 6 | -8.419 |  |  | 
18 | CCOC(=O)C1=C(C)Nc2nc3cc(Br)c(Br)cc3n2C1c1ccsc1 (centres unmarked) [14w] | 7 | 2 | 47 | 4 |  |  |  |  | 
19 | CC1=C(C(=O)OC(C)C)C(c2ccsc2)n2c(nc3ccc(Cl)cc32)N1 (centres unmarked) [15p] | 9 | 7 | 48 | 3 |  |  |  |  | 
20 | CCOC(=O)C1=C(C)Nc2nc3cc(Cl)ccc3n2C1c1cccs1 (centres unmarked) [16m] | 2 | 3 | 41 | 1 |  |  |  |  | 
21 | CCOC(=O)C1=C(C)Nc2nc3cc(Br)c(Br)cc3n2C1c1cccs1 (centres unmarked) [14u] | 7 | 2 | 12 | 5 |  |  |  |  | 
22 | CCOC(=O)C1=C(C)Nc2nc3ccc(F)cc3n2C1c1ccoc1 (centres unmarked) [15c] | 21 | 26 |  | 5 | 25 ± 1.5 | -9.361 |  |  | 
23 | CCOC(=O)C1=C(C)Nc2nc3ccc(Br)cc3n2C1c1ccsc1 (centres unmarked) [15w] | 3 | 4 | 43 | 3 |  |  |  |  | 
24 | CC1=C(C(=O)OC(C)C)C(c2ccco2)n2c(nc3ccc(F)cc32)N1 (centres unmarked) [15b] | 3 | 32 |  | 5 | 12.2 ± 1.2 | -10.79 |  |  | 
25 | CC1=C(C(=O)OC(C)C)C(c2cocn2)n2c(nc3ccc(Cl)cc32)N1 (centres unmarked) [17d] | 1 | 27 |  | 20 | 102 ± 7 | -9.528 |  |  | 
26 | CCOC(=O)C1=C(C)Nc2nc3cc(F)c(F)cc3n2C1c1ccoc1 (centres unmarked) [14c] | 36 | 22 |  | 17 | 28.2 ± 0.8 |  |  |  | 
